For one assay, the system named is NL-Rluc virus. In words: Inhibition of HIV replication (recombinant NL-Rluc virus, luciferase). The following applies: Human immunodeficiency virus 1, read-out: Inhibition of HIV replication. It counts as cell-based.
A further assay has as its target T1, HIV-integrase (Human immunodeficiency virus type 1 group M subtype B, UniProt P12497).
T1 construct: Recombinant integrase (0.26 ng) was incubated with the beads
In words: HIV-Integrase Inhibition Activity (SPA bead strand-transfer assay). It counts as biochemical. The following applies: Table 2a; read-out: HIV-Integrase Inhibition Activity. The gist of the method: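 Biotin-labelled substrate DNA (5 pmole) bound to streptavidin SPA beads, preloaded with recombinant integrase (0.26 ng) for 90 min at 37° C, then washed. Inhibitors and 0.1 fmol P33-labelled target DNA added; reaction stopped with 10 mM EDTA. Integration read as scintillation CPM.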

pEC50, pIC50: −log10 of the molar value. Some results are limits rather than exact numbers.

Consider `Cc1nncn1-c1cc(F)ccc1CNC(=O)c1nc2n(c(=O)c1O)CCOC2(C)C` [Example 303, Pyrimido[2,1-c][1,4]oxazine-2-carboxamide, N-[[4-fluoro-2-(3-methyl-4H-1,2,4-triazol-4-yl)phenyl]methyl]-4,6,7,9-tetrahydro-3-hydroxy-9,9-dimethyl-4-oxo-], for which, in the assay on NL-Rluc virus, the pEC50 is under 6.00. At HIV-integrase, the pIC50 is 6.00 to 7.00.
On the same counts, the results for `CC1(C)OCCCn2c1nc(C(=O)NCc1ccc(F)cc1N1CCOC1=O)c(O)c2=O` [Example 304, 6H-Pyrimido[2,1-c][1,4]oxazepine-2-carboxamide, N-[[4-fluoro-2-(2-oxo-3-oxazolidinyl)phenyl]methyl]-4,7,8,10-tetrahydro-3-hydroxy-10,10-dimethyl-4-oxo-] are 7.00 to 8.52 and 7.00 to 8.70.
On the same counts, the results for `CCS(=O)(=O)Nc1cc(F)ccc1CNC(=O)c1nc2n(c(=O)c1O)CCOC2(C)C` [Example 305, Pyrimido[2,1-c][1,4]oxazine-2-carboxamide, N-[[2-[(ethylsulfonyl)amino]-4-fluorophenyl]methyl]-4,6,7,9-tetrahydro-3-hydroxy-9,9-dimethyl-4-oxo-] are 7.00 to 8.52 and 7.00 to 8.70.
Consider `CC1(C)OCCn2c1nc(C(=O)NCc1ccc(F)cc1-n1cccn1)c(O)c2=O` [Example 306, Pyrimido[2,1-c][1,4]oxazine-2-carboxamide, N-[[4-fluoro-2-(1H-pyrazol-1-yl)phenyl]methyl]-4,6,7,9-tetrahydro-3-hydroxy-9,9-dimethyl-4-oxo-], for which the pEC50 with NL-Rluc virus was 7.00 to 8.52. For the same compound, the pIC50 at HIV-integrase is 7.00 to 8.70.
The like results for `Cc1nc(C)n(-c2cc(F)ccc2CNC(=O)c2nc3n(c(=O)c2O)CCOC3(C)C)n1` [Example 307, Pyrimido[2,1-c][1,4]oxazine-2-carboxamide, N-[[2-(3,5-dimethyl-1H-1,2,4-triazol-1-yl)-4-fluorophenyl]methyl]-4,6,7,9-tetrahydro-3-hydroxy-9,9-dimethyl-4-oxo-] were, in that order, 7.00 to 8.52 and 7.00 to 8.70.
As for `CC1(C)OCCn2c1nc(C(=O)NCc1ccc(F)cc1-n1ncnc1CO)c(O)c2=O` [Example 308, Pyrimido[2,1-c][1,4]oxazine-2-carboxamide, N-[[4-fluoro-2-[5-(hydroxymethyl)-1H-1,2,4-triazol-1-yl]phenyl]methyl]-4,6,7,9-tetrahydro-3-hydroxy-9,9-dimethyl-4-oxo-], in the assay on NL-Rluc virus, the pEC50 is 7.00 to 8.52. For the same compound, at HIV-integrase, the pIC50 is 7.00 to 8.70.
Consider `CC(=O)OCCSc1cc(F)ccc1CNC(=O)c1nc2n(c(=O)c1O)CCOC2(C)C` [Example 309, Pyrimido[2,1-c][1,4]oxazine-2-carboxamide, N-[[2-[[2-(acetyloxy)ethyl]thio]-4-fluorophenyl]methyl]-4,6,7,9-tetrahydro-3-hydroxy-9,9-dimethyl-4-oxo-], for which the pEC50 with NL-Rluc virus is 7.00 to 8.52. The pIC50 on HIV-integrase was 7.00 to 8.70.
In the case of `CC(=O)OCCS(=O)(=O)c1cc(F)ccc1CNC(=O)c1nc2n(c(=O)c1O)CCOC2(C)C` [Example 310, Pyrimido[2,1-c][1,4]oxazine-2-carboxamide, N-[[2-[[2-(acetyloxy)ethyl]sulfonyl]-4-fluorophenyl]methyl]-4,6,7,9-tetrahydro-3-hydroxy-9,9-dimethyl-4-oxo-], in the assay with NL-Rluc virus, the pEC50 was 7.00 to 8.52. Besides, the pIC50 at HIV-integrase was 7.00 to 8.70.
The like results for `CCSc1cc(F)ccc1CNC(=O)c1nc2n(c(=O)c1O)CCOC2(C)C` [Example 311, Pyrimido[2,1-c][1,4]oxazine-2-carboxamide, N-[[2-(ethylthio)-4-fluorophenyl]methyl]-4,6,7,9-tetrahydro-3-hydroxy-9,9-dimethyl-4-oxo-] were, in that order, 7.00 to 8.52 and 7.00 to 8.70.
The like results for `CC1(C)OCCn2c1nc(C(=O)NCc1ccc(F)cc1S(=O)(=O)CCO)c(O)c2=O` [Example 312, Pyrimido[2,1-c][1,4]oxazine-2-carboxamide, N-[[4-fluoro-2-[(2-hydroxyethyl)sulfonyl]phenyl]methyl]-4,6,7,9-tetrahydro-3-hydroxy-9,9-dimethyl-4-oxo-] were, in that order, 7.00 to 8.52 and 7.00 to 8.70.

Values taken from patent US7491819B1 (priority 2004, dated 2009).
